Results published in PMC2376372, “3-Bromophenyl 6-acetoxymethyl-2-oxo-2H-1-benzopyran-3-carboxylate inhibits cancer cell invasion in vitro and tumour growth in vivo” (British Journal of Cancer, 2003).

Experiments:
[1] = test system: HT1080 fibrosarcoma cells; test: Chemotaxis assay, uncoated Transwell inserts; format: cell-based, human; details: Homo sapiens, HT-1080, 4 h, uncoated filters
Experimental: HT1080 cells exponentially growing in T-75 flasks (Nunc, Costar, Netherlands) were collected by trypsin–ethylenediaminetetraacetic acid treatment, washed with serum-containing medium and allowed to recover from trypsinisation for at least 30 min at 37°C. Cells were then washed twice in serum-free DMEM and diluted in the same medium supplemented with 0.1% bovine serum albumin (BSA, fraction V, Sigma, USA) to a cell density of 6 × 10^5 cells ml^−1.
The influence of coumarin derivatives (0.1, 1 and 10 μM) on HT1080 cell invasion and migration was assayed using Transwell cell culture inserts (Costar) and compared to the reference compound GI 129471 (1 μM), an MMP inhibitor ([Wheeler et al, 1998]).
For chemoinvasion assays, type IV collagen-coated membranes (see above) were used, whereas uncoated membranes were employed for chemotaxis assays. Lower wells of chambers were filled with DMEM supplemented with 20% FCS and 1% BSA (fraction V, ICN) as chemoattractant, in the presence or absence of coumarin derivative (final concentration 0.1, 1 and 10 μM) or GI 129471 (final concentration 1 μM). Cells (6 × 10^4) suspended in DMEM supplemented with 0.1% BSA (fraction V, ICN) were seeded in the upper wells. Chambers were subsequently incubated for 48 and 4 h for chemoinvasion and chemotaxis assays, respectively, in a humid atmosphere at 37°C (in order to maintain a chemotactic gradient, media from both lower and upper wells were renewed after 24 h). After incubation, filters were removed from the chambers, fixed in 4% paraformaldehyde for 15 min (4°C), permeabilised for 10 min in methanol (−20°C) and stained with Giemsa (4%) for 15 min. The upper surface of the filters was scrapped with a cotton swab and cells having reached the lower surface of the filters were visually counted using a light microscope (Vanox AH3, Olympus, Hamburg, Germany) at 20-fold magnification. Each assay was performed in triplicate. Results were expressed as percentages (±s.d.) of the migration of control cells.

[2] = test system: MMP-2 and MMP-9; test: Gelatin zymography of HT1080 conditioned medium; format: biochemical, human; details: 1–100 μM in HT1080 conditioned medium
Experimental: The culture medium of human fibrosarcoma HT1080 cells (DMEM) was removed and concentrated 20-fold in a Vivaspin 6 ml concentrator. It was incubated for 30 min at ambient temperature in nonreducing sample buffer and run under Laemmli conditions ([Laemmli, 1970]) by loading a volume of 25 μl onto 7.5% polyacrylamide gels containing 0.1% sodium dodecyl sulphate (SDS), 2 mg ml^−1 casein and 0.16 μM human plasminogen. Following electrophoresis, gels were incubated for 1 h in 2.5% (v v^−1) Triton X-100 for removal of SDS and then for 1 h at 37°C in 50 mM Tris-HCl, 0.1 M NaCl, pH 7.6. Plasminogen activator (PA) activity was visualised as clear bands of lysis upon staining with 0.1% Coomassie blue R250. Purified human high-molecular-weight two-chain urokinase plasminogen activator (HMW-uPA) and low-molecular-weight urokinase plasminogen activator (LMW-uPA) were run in each gel as positive controls. An analogous protocol was followed to detect enzymatic activities towards MMP-2 and MMP-9 except that the 7% SDS–PAGE contained 1 mg ml^−1 bovine gelatin. The gels were incubated at 37°C for about 18 h in 5 mM Tris, pH 7.6 containing 0.2 M NaCl, 5 mM CaCl2 and 0.02 (w v^−1) Brij35. Protein staining was performed during 1 h with a 0.25% solution of Coomassie brillant blue R250 in 50% methanol and 7% acetic acid and destaining in a solution of 20% methanol and […]. […]

[3] = test system: HT1080 cells; test: Tumorigenicity of HT1080 cells injected s.c. with matrigel in nude mice; format: in vivo; details: 30 mg kg^−1 i.p. three times per week; for effect on tumour growth (tumour volume), HT1080: ANOVA; for time after cell inoculation to reach a tumour incidence of 50%: tumours higher than 80 mm^3
Experimental: Matrigel (basement membrane proteins) was extracted from the mouse Engelbreth–Holm–Swarm (EHS) tumour as previously described ([Noël et al, 1991]). Tumoral cells were detached by trypsinisation, harvested by centrifugation, resuspended in 0.25 ml of serum-free medium and mixed with an equal volume of cold matrigel (10 mg ml^−1). The suspension (1 × 10^6 cells injection site^−1) was injected subcutaneously (s.c.) on both body flanks of 6–8-week-old female athymic nude mice (n=6; nu/nu Swiss mice from Iffa credo, L'Arbresle, France). The coumarin derivatives in PBS were injected intraperitoneally (30 mg kg^−1) three times per week during the whole assay.
The tumorigenicity defines the capacity of cells to induce tumour formation. The larger (a) and smaller (b) diameters of the apparent tumour were measured and served for tumour volume calculation according to a × b^2 × 0.4 ([Attia and Weiss, 1966]). Injected mice were examined weekly. Tumours presenting a volume higher than 80 mm^3 and which maintained a progressive growth were taken into account ([Noël et al, 1992]). Results are expressed as the mean (±s.e.m.) of the tumour volumes.

CC(=O)OCc1ccc2oc(=O)c(C(=O)Oc3cccc(Cl)c3)cc2c1 [compound 4, 3-chlorophenyl 6-acetoxymethyl-2-oxo-2H-1-benzopyran-3-carboxylate]
inhibition at 0.1 µM ([1]; 0.1 μM): 20%
inhibition at 1 µM [1]: 50%
inhibition at 10 µM ([1]; 10 μM): 80%
effect on gelatinolytic activities of conditioned culture medium (gelatin zymography) [2]: did not abrogate
effect on tumour growth (tumour volume), HT1080 [3]: did not significantly affect tumour growth
time after cell inoculation to reach a tumour incidence of 50% [3]: 26 days

CC(=O)OCc1ccc2oc(=O)c(C(=O)Oc3cccc(Br)c3)cc2c1 [compound 7, 3-bromophenyl 6-acetoxy-methyl-2-oxo-2H-1-benzopyran-3-carboxylate]
inhibition at 1 µM [1]: ~30%
effect on gelatinolytic activities of conditioned culture medium (gelatin zymography) [2]: did not abrogate
effect on tumour growth (tumour volume), HT1080 [3]: significantly reduced the tumour growth
effect on tumour incidence, HT1080 ([3]; log Rank test, P<0.004): reduce both the incidence
time after cell inoculation to reach a tumour incidence of 50% [3]: 48 days
